pIC50: −log10 of the molar value. Where two headings read alike, the source gives them in different places.
What was measured:
[1] = molecular target: T1, ALK (Homo sapiens, UniProt Q9UM73); experiment: ALK Kinase Assay (ELISA/TRF, PLC-γ substrate); format: biochemical; conditions: read-out: ALK Potency
T1 construct: host or cells: baculovirus expression system
Outline: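 PLC-γ substrate coated at 10 μg/mL in TBS; reaction started with 30 ng/ml ALK, run 15 min at 37° C. Phosphoproduct detected by TRF with Eu-N1-labeled PT66 anti-phosphotyrosine antibody. IC50 from sigmoidal variable-slope fit of percent inhibition versus log concentration.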

[2] = molecular target: T2, JAK2 (Homo sapiens, UniProt O60674); experiment: Recombinant Human JAK2 Kinase Assay (TRF); format: biochemical; conditions: read-out: JAK2 Potency
T2 construct: host or cells: baculovirus expression system
T2 sequence (O60674 whole entry): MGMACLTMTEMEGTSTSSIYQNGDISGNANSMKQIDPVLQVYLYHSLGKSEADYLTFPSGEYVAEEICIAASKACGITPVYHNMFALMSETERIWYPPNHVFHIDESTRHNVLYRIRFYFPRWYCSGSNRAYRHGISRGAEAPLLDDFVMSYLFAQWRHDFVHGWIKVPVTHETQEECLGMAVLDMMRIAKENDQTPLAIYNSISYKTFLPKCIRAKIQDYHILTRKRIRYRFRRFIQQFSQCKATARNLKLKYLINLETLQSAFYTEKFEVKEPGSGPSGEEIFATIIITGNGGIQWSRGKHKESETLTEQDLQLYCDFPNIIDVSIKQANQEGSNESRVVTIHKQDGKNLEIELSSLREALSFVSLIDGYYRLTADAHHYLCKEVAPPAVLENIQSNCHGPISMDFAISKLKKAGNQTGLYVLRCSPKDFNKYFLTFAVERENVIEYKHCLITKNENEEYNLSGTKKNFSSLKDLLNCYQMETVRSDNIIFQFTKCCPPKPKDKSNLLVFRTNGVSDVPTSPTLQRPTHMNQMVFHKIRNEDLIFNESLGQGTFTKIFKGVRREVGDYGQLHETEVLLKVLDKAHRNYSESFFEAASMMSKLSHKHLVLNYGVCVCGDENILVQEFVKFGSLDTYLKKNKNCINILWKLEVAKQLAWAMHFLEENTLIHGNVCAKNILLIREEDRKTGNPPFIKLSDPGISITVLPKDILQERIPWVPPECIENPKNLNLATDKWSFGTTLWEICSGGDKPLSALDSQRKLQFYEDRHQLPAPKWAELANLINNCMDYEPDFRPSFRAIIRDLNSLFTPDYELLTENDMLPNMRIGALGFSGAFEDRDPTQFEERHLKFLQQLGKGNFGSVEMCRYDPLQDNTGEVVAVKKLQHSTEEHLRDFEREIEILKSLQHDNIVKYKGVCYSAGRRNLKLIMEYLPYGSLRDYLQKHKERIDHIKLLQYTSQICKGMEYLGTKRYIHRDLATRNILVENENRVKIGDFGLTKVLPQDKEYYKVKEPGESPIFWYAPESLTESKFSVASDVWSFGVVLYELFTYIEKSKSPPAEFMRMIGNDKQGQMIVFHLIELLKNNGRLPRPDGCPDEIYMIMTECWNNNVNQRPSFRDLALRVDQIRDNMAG
Outline: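 Baculovirus-expressed JAK2 (15 ng/ml) phosphorylated a biotinylated 15-mer peptide captured on Neutravidin-coated plates, in 20 mM HEPES pH 7.2 with 0.2 μM ATP, 1 mM MnCl2, 0.1% BSA and 2.5% DMSO. Reaction ran 20 min at room temperature; phosphopeptide was detected by time-resolved fluorescence with Eu-N1-labelled PY100 antibody.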

[3] = ALK kinase inhibition, 1 μM ATP
[4] = JAK2 kinase inhibition, 0.2 μM ATP

T1 sequence (Q9UM73 19-1620): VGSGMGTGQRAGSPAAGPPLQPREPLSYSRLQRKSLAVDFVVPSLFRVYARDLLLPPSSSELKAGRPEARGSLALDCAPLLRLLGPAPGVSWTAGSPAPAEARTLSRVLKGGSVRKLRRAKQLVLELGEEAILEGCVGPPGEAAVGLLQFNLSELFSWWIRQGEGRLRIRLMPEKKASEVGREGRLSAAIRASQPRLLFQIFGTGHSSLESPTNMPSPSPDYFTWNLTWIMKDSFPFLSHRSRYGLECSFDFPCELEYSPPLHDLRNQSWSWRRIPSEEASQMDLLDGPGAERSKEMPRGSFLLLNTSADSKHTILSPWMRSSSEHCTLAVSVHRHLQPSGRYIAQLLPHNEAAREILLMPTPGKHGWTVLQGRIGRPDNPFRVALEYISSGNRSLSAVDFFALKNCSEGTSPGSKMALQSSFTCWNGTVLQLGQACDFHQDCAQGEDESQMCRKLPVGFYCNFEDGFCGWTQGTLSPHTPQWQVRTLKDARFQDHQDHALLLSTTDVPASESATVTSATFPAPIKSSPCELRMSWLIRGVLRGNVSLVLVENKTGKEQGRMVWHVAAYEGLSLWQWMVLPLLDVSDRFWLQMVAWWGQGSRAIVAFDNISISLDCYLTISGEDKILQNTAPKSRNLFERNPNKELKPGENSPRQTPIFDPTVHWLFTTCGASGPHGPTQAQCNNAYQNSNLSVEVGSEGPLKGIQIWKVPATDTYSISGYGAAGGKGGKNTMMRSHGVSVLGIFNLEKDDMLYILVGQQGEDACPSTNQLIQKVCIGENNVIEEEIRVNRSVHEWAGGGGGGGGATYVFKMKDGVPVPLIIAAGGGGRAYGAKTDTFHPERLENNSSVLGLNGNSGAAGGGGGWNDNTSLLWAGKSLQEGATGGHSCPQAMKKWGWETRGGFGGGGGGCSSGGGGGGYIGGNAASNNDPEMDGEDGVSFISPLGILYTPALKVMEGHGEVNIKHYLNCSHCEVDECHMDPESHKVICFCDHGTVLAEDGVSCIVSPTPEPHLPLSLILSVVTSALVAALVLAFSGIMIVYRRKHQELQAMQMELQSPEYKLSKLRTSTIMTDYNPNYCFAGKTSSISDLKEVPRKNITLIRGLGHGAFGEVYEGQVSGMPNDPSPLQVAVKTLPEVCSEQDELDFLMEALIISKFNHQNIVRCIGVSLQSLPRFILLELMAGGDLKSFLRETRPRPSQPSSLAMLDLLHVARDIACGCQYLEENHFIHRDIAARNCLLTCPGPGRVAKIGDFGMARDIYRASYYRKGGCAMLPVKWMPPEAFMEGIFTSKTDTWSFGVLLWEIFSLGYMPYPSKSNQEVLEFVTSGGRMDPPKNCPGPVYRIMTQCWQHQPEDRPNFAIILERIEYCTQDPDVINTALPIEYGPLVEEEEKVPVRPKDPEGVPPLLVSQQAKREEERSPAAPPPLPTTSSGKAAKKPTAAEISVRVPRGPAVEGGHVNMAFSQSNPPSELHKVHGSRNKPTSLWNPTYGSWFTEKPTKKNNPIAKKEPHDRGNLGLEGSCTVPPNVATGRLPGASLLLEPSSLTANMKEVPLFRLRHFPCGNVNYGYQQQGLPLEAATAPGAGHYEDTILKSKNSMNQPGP

Compound	pIC50 [1, 3]	pIC50 [2, 4]	pIC50 ([1]; ALK Kinase Inhibition)	pIC50 ([2]; JAK2 Kinase Inhibition)
CN1CCC(c2ccc(Nc3ncc4ccc(-c5cccc(S(=O)(=O)NC6CC6)c5)n4n3)cc2)CC1 [Example 906, N-Cyclopropyl-3-{2-[4-(1-methyl-piperidin-4-yl)-phenylamino]-pyrrolo[2,1-f][1,2,4]triazin-7-yl}-benzenesulfonamide]	> 7.00	> 7.00	–	–
CN1CCN(c2cccc(Nc3ncc4ccc(-c5cccc(N6CCCS6(=O)=O)c5)n4n3)c2)CC1 [Example 1509, 7-[3-(1,1-Dioxido-1,2-thiazolidin-2-yl)phenyl]-N-[3-(4-methylpiperazin-1-yl)phenyl]pyrrolo[2,1-f][1,2,4]triazin-2-amine]	–	–	6.00 to 7.00	> 7.00
COc1cc(N2CCC(N3CC[C@@H](O)C3)CC2)ccc1Nc1ncc2ccc(-c3ccccc3N(C)S(C)(=O)=O)n2n1 [Example 478, N-[2-(2-{4-[4-((R)-3-Hydroxy-pyrrolidin-1-yl)-piperidin-1-yl]-2-methoxy-phenylamino}-pyrrolo[2,1-f][1,2,4]triazin-7-yl)-phenyl]-N-methyl-methanesulfonamide]	> 7.00	> 7.00	–	–
N-{2-[2-(2-Oxo-2,3-dihydro-benzooxazol-6-ylamino)pyrrolo[2,1-f][1,2,4]triazin-7-yl]phenyl}methanesulfonamide [Example 629]	6.00 to 7.00	> 7.00	–	–
FC1(F)Oc2cccc(-c3ccc4cnc(Nc5ccc6c(c5)CCC(N5CCOCC5)CC6)nn34)c2O1 (stereo not shown) [Example 1535, [7-(2,2-Difluoro-benzo[1,3]dioxol-4-yl)-pyrrolo[2,1-f][1,2,4]triazin-2-yl]-(7-morpholin-4-yl-6,7,8,9-tetrahydro-5H-benzocyclohepten-2-yl)-amine]	–	–	5.00 to 6.00	> 7.00
COc1cc2c(cc1Nc1ncc3ccc(-c4cccc(S(=O)(=O)NC5CC5)c4)n3n1)CCN(CC(N)=O)CC2 [Example 524, 2-{7-[7-(3-Cyclopropylsulfamoyl-phenyl)-pyrrolo[2,1-f][1,2,4]triazin-2-ylamino]-8-methoxy-1,2,4,5-tetrahydro-benzo[d]azepin-3-yl}-acetamide]	> 7.00	6.00 to 7.00	–	–
Cn1cc(-c2ccc3cnc(Nc4cccc(OCCN5CCOCC5)c4)nn23)cn1 [Example 1004, [7-(1-Methyl-1H-pyrazol-4-yl)-pyrrolo[2,1-f][1,2,4]triazin-2-yl]-[3-(2-morpholin-4-yl-ethoxy)-phenyl]-amine]	5.00 to 6.00	> 7.00	–	–
CN(c1cccc(-c2ccc3cnc(Nc4ccc(N5CCOCC5)cc4)nn23)c1)S(C)(=O)=O [Example 420, N-Methyl-N-{3-[2-(4-morpholin-4-yl-phenylamino)-pyrrolo[2,1-f][1,2,4]triazin-7-yl]-phenyl}-methanesulfonamide]	–	–	5.00 to 6.00	> 7.00
CC(C)(C)NS(=O)(=O)c1cccc(-c2ccc3cnc(Nc4ccc(C(N)=O)cc4)nn23)c1 [Example 1399, 4-[7-(3-tert-Butylsulfamoyl-phenyl)-pyrrolo[2,1-f][1,2,4]triazin-2-ylamino]-benzamide]	–	–	5.00 to 6.00	> 7.00
COc1cc(N2CCCN(C[C@H](O)CO)CC2)ccc1Nc1ncc2ccc(-c3ccccc3N(C)S(C)(=O)=O)n2n1 [Example 773, N-[2-(2-{4-[4-((S)-2,3-Dihydroxy-propyl)-[1,4]diazepan-1-yl]-2-methoxy-phenylamino}-pyrrolo[2,1-f][1,2,4]triazin-7-yl)-phenyl]-N-methyl-methanesulfonamide]	> 7.00	6.00 to 7.00	–	–
O=S(=O)(NC1CC1)c1cccc(-c2ccc3cnc(Nc4ccc(N5CCOCC5)cc4)nn23)c1 [Example 356, N-Cyclopropyl-3-[2-(4-morpholin-4-yl-phenylamino)-pyrrolo[2,1-f][1,2,4]triazin-7-yl]-benzenesulfonamide]	–	–	6.00 to 7.00	> 7.00
COc1ccc(-c2ccc3cnc(Nc4ccc(C5CCN(CC(N)=O)CC5)cc4)nn23)c(OC)n1 [Example 682, 2-(4-{4-[7-(2,6-Dimethoxy-pyridin-3-yl)-pyrrolo[2,1-f][1,2,4]triazin-2-ylamino]-phenyl}-piperidin-1-yl)-acetamide]	> 7.00	> 7.00	–	–

Second part, the compound after the results:

pIC50 [1, 3]	pIC50 [2, 4]	pIC50 ([1]; ALK Kinase Inhibition)	pIC50 ([2]; JAK2 Kinase Inhibition)	Compound
5.00 to 6.00	> 7.00	–	–	Cc1ccncc1-c1ccc2cnc(Nc3ccc(N4CCOCC4)cc3)nn12 [Example 1038, [7-(4-Methyl-pyridin-3-yl)-pyrrolo[2,1-f][1,2,4]triazin-2-yl]-(4-morpholin-4-yl-phenyl)-amine]
5.00 to 6.00	> 7.00	–	–	COc1ccc(-c2ccc3cnc(Nc4cccc(NCC(N)=O)c4)nn23)cn1 [Example 975, 2-{3-[7-(6-Methoxy-pyridin-3-yl)-pyrrolo[2,1-f][1,2,4]triazin-2-ylamino]-phenylamino}-acetamide]
> 7.00	6.00 to 7.00	–	–	COc1cc(C2CCCN(C)C2)ccc1Nc1ncc2ccc(-c3ccccc3OC)n2n1 (stereo not shown) [Example 805, [2-Methoxy-4-(1-methyl-piperidin-3-yl)-phenyl]-[7-(2-methoxy-phenyl)-pyrrolo[2,1-f][1,2,4]triazin-2-yl]-amine]
5.00 to 6.00	> 7.00	–	–	COc1ccccc1-c1ccc2cnc(Nc3cccc(S(=O)(=O)N(C)C)c3)nn12 [Example 594, 3-[7-(2-Methoxy-phenyl)-pyrrolo[2,1-f][1,2,4]triazin-2-ylamino]-N,N-dimethyl-benzenesulfonamide]
6.00 to 7.00	> 7.00	–	–	CN(c1ccccc1-c1ccc2cnc(Nc3ccc4cn[nH]c4c3)nn12)S(C)(=O)=O [Example 1337, N-{2-[2-(1H-Indazol-6-ylamino)-pyrrolo[2,1-f][1,2,4]triazin-7-yl]-phenyl}-N-methyl-methanesulfonamide]
6.00 to 7.00	> 7.00	–	–	COc1ccccc1-c1ccc2cnc(Nc3ccc4c(c3)COCCN4C)nn12 [Example 618, [7-(2-Methoxy-phenyl)-pyrrolo[2,1-f][1,2,4]triazin-2-yl]-(1-methyl-1,2,3,5-tetrahydro-benzo[e][1,4]oxazepin-7-yl)-amine]
5.00 to 6.00	> 7.00	–	–	COc1ccccc1-c1ccc2cnc(Nc3ccc4c(c3)N(C(C)=O)CCCC4)nn12 [Example 639, 1-{8-[7-(2-Methoxyphenyl)-pyrrolo[2,1-f][1,2,4]triazin-2-ylamino]-2,3,4,5-tetrahydrobenzo[b]azepin-1-yl}ethanone]
–	–	6.00 to 7.00	> 7.00	COc1ccccc1-c1ccc2cnc(Nc3ccc4c(c3)OCO4)nn12 [Example 149, 1,3-Benzodioxol-5-yl-[7-(2-methoxy-phenyl)-pyrrolo[2,1-f][1,2,4]triazin-2-yl]-amine]
> 7.00	> 7.00	–	–	CN(c1ccccc1-c1ccc2cnc(Nc3ccc(Cn4ccnc4)cc3)nn12)S(C)(=O)=O [Example 621, N-{2-[2-(4-Imidazol-1-ylmethylphenylamino)-pyrrolo[2,1-f][1,2,4]triazin-7-yl]phenyl}-N-methyl-methanesulfonamide]
> 7.00	6.00 to 7.00	–	–	COc1cc(N2CCCN(C3CCN(CCO)CC3)CC2)ccc1Nc1ncc2ccc(-c3ccccc3OC)n2n1 [Example 800, 2-[4-(4-{3-Methoxy-4-[7-(2-methoxy-phenyl)-pyrrolo[2,1-f][1,2,4]triazin-2-ylamino]-phenyl}-[1,4]diazepan-1-yl)-piperidin-1-yl]-ethanol]
> 7.00	6.00 to 7.00	–	–	COc1cc2c(cc1Nc1ncc3ccc(-c4ccccc4N(C)S(C)(=O)=O)n3n1)CN(C)C2 [Example 809, N-{2-[2-(6-Methoxy-2-methyl-2,3-dihydro-1H-isoindol-5-ylamino)-pyrrolo[2,1-f][1,2,4]triazin-7-yl]-phenyl}-N-methyl-methanesulfonamide]
6.00 to 7.00	> 7.00	–	–	CN1CCN(C)C(c2ccc(Nc3ncc4ccc(-c5ccccc5N(C)S(C)(=O)=O)n4n3)cc2)C1=O (stereo not shown) [Example 1073, N-(2-{2-[4-(1,4-Dimethyl-3-oxo-piperazin-2-yl)-phenylamino]-pyrrolo[2,1-f][1,2,4]triazin-7-yl}-phenyl)-N-methyl-methanesulfonamide]
–	–	5.00 to 6.00	> 7.00	COc1ccc(-c2ccc3cnc(Nc4ccc(CN5CCCC5)cc4)nn23)cn1 [Example 1405, [7-(6-Methoxy-pyridin-3-yl)-pyrrolo[2,1-f][1,2,4]triazin-2-yl]-(4-pyrrolidin-1-ylmethyl-phenyl)-amine]
5.00 to 6.00	> 7.00	–	–	COc1ccccc1-c1ccc2cnc(Nc3ccc4cn(CCN5CCOCC5)nc4c3)nn12 [Example 1350, [7-(2-Methoxy-phenyl)-pyrrolo[2,1-f][1,2,4]triazin-2-yl]-[2-(2-morpholin-4-yl-ethyl)-2H-indazol-6-yl]-amine]
6.00 to 7.00	> 7.00	–	–	CN1C(=O)COc2cc(Nc3ncc4ccc(-c5cccc(NS(C)(=O)=O)c5)n4n3)ccc21 [Example 638, N-{3-[2-(4-Methyl-3-oxo-3,4-dihydro-2H-benzo[1,4]oxazin-7-ylamino)-pyrrolo[2,1-f][1,2,4]triazin-7-yl]-phenyl}methanesulfonamide]
> 7.00	> 7.00	–	–	CN1CCN(c2ccc(Nc3ncc4ccc(-c5cccc6c5OCCO6)n4n3)cc2)CC1 [Example 548, [7-(2,3-Dihydro-1,4-benzodioxin-5-yl)-pyrrolo[2,1-f][1,2,4]triazin-2-yl]-[4-(4-methyl-piperazin-1-yl)-phenyl]-amine]
6.00 to 7.00	> 7.00	–	–	COc1ccccc1-c1ccc2cnc(Nc3ccc4c(c3)ncn4CCN3CCOCC3)nn12 [Example 1348, [7-(2-Methoxy-phenyl)-pyrrolo[2,1-f][1,2,4]triazin-2-yl]-[1-(2-morpholin-4-yl-ethyl)-1H-benzimidazol-5-yl]-amine]

From US8471005B2 (Cephalon, Inc., priority 2008, dated 2013)
